Where “and” joins values, the source holds several entries; their conditions need not be identical. Equal values may be shown once. Where a name gives a salt, the structure may show the parent alone.

Series [1] in a line: Hydrodynamic radii of micelles by dynamic light scattering (DLS). It counts as physicochemical. The settings on record: 0.5 wt % amphiphile in water, 25° C.; mean ± SD, n = 3. As to the method: (§1) TFA-0 forms a hydrogel at concentrations >0.4 wt %, and this compound was not studied further. The other three TFAs are soluble to 5-10 wt % in aqueous media. Critical micelle concentrations (CMC) were determined by monitoring solubilization of a hydrophobic fluorescent dye, […] (Chattopadhyay et al., Anal. Biochem. 1984, 139, 408-412), and the hydrodynamic radii (Rh) of the micelles were determined via dynamic light scattering (DLS). Table 1 compares the data for TFAs with those for DDM, a conventional detergent that is very widely used for MP applications; DDM and the TFAs share maltose as their hydrophilic moieties. CMC values of the three TFAs are smaller than that of DDM, whether CMC is measured in units of mM or wt %.
Each TFA and DDM was dissolved in distilled, deionized (DI) water to obtain 1 mL of a solution containing 0.5 wt % amphiphile. Each solution was filtered through a 0.02 μm filter for DLS measurements. A 100-mW, 532-nm laser (Compass 315M-100, Coherent, Santa Clara, Calif.) illuminated a temperature-controlled glass cell at 25° C. that was filled with a refractive-index matching fluid (decahydronaphthalene, Fisher Scientific, Pittsburgh, Pa.). The scattered light was collected at an angle of 90° for about 30 minutes. Rh values were determined using the integrated dynamics software that analyzes the time scale of the scattered light intensity fluctuations by an autocorrelation function. The autocorrelation functions (ACFs) were obtained using a BI-9000AT digital autocorrelator (Brookhaven Instruments, Holtsville, N.Y.). Measurements were repeated three times.

Series [2] concerns leucine transporter (LeuT WT). Nature of the series: LeuT functionality assay ([3H]-Leu binding by scintillation proximity assay). The settings on record: room temperature. Also noted: species or system Aquifex aeolicus. The text has this: The wild type of bacterial leucine transporter (LeuT WT) was examined because the functional state of this membrane protein is readily assessed by using a scintillation proximity assay (SPA) (Quick et al., Proc. Natl. Acad. Sci. USA 2007, 104, 3603-3608) to monitor binding of radiolabelled leucine. LeuT was initially extracted with DDM and then diluted with amphiphile-containing solutions to generate final TFA concentrations of 0.04 wt % or 0.2 wt % (residual DDM=0.005 wt %). Control samples had 0.05 wt % or 0.2 wt % DDM (overall, the final concentrations were CMC+0.04 wt % or CMC+0.2 wt %).
The wild type of the leucine transporter (LeuT WT) from Aquifex aeolicus was expressed in Escherichia coli essentially as described by Deckert et al. (Nature 392, 353-358 (1998)). The pET16b-LeuT WT-8His plasmid was kindly provided by Dr. Eric Gouaux, Vollum Institute, Portland Oreg. LeuT WT was extracted from isolated bacterial membranes solubilized with 1% DDM, bound to Ni^2+-affinity Chelating Sepharose Fast Flow resin (GE Healthcare, USA), and eluted in buffer consisted of 20 mM Tris-HCl (pH 8.0), 1 mM NaCl, 199 mM KCl, 0.05% DDM and 300 mM imidazole. […] After incubation at room temperature, at the indicated time points, samples were centrifuged and the protein concentration was determined by absorbance measurements at 280 nm. Concomitantly, [^3H]-Leu binding was determined using scintillation proximity assay (SPA) (Quick and Javitch, Proc. Natl. Acad. Sci. USA 104, 3603-3608 (2007)), with the reaction mixture consisted of 5 μL from the respective samples, 33.3 nM [^3H]-Leu (PerkinElmer, USA) and copper chelate (His-Tag) YSi beads (GE Healthcare). […] Normalized results are expressed as mean±SEM (n=2), as illustrated in FIG. 11 (long-term solubility of LeuT WT incubated in the presence of TFA-1, TFA-3, and DDM at (a) CMC+0.04 wt % or (b) CMC+0.2 wt % at room temperature).
On the technique in general: In a scintillation proximity assay essentially only radioactivity close to the scintillant gives light.

Series [3] in a line: Critical micelle concentration by solubilization of a hydrophobic fluorescent dye. The series is classed as physicochemical. The settings on record: mean ± SD, n = 3.
Description: The “Critical Micelle Concentration” (CMC) refers to the concentration of a detergent (e.g., an amphiphile as described herein) in an aqueous solution at which the detergent molecules self-assemble into micelles. Below the CMC, detergents are mostly monomeric; above the CMC, micelle concentration increases linearly with detergent concentration. The CMC is dependent upon many factors and is detergent-specific. The CMC of a detergent can be determined experimentally by measuring the solubilization of a water-insoluble dye or fluorophore while varying the concentration of detergent. A CMC may also be determined by measuring the diminution of the surface tension of an aqueous solution as a function of detergent concentration (CMCs determined by either method correlate with each other). The CMC is determined by extrapolating the plot of solubilization vs. concentration (or surface tension vs. concentration) in the two linear regions above and below the CMC. Where the two lines intersect is the CMC. The CMC can also be determined by the method of Nugebauer, J. M. (1990), Methods in Enzymology, 182:239-253.
as §1
Analysis of these TFAs for their CMC values provided the data in Table 3.

For the molecule `CCCCCCCCCCCCO[C@@H]1O[C@H](CO)[C@@H](O[C@H]2O[C@H](CO)[C@@H](O)[C@H](O)[C@H]2O)[C@H](O)[C@H]1O` [DDM, dodecyl-β-D-maltoside, reference compound], the “Rh (nm), hydrodynamic radius of micelles measured by dynamic light scattering” value in series [1] came out at 3.4 ± 0.03 nm. The “maintaining LeuT WT function over 12 days” value in series [2] (lower amphiphile concentration, CMC+0.04 wt %) is on record as “slightly better than the TFAs”. Moreover, in series [3], the “CMC” value is 170 µM; the “CMC (wt %)” value was 0.009 wt % and 0.0087 wt %.
Take `C[C@H](CCC(=O)N(C)CCCN(C)C(=O)CC[C@@H](C)[C@H]1CC[C@H]2[C@@H]3CC[C@@H]4C[C@H](O[C@@H]5O[C@H](CO)[C@@H](O[C@H]6O[C@H](CO)[C@@H](O)[C@H](O)[C@H]6O)[C@H](O)[C@H]5O)CC[C@]4(C)[C@H]3C[C@H](O[C@@H]3O[C@H](CO)[C@@H](O[C@H]4O[C@H](CO)[C@@H](O)[C@H](O)[C@H]4O)[C@H](O)[C@H]3O)[C@]12C)[C@H]1CC[C@H]2[C@@H]3CC[C@@H]4C[C@H](O[C@@H]5O[C@H](CO)[C@@H](O[C@H]6O[C@H](CO)[C@@H](O)[C@H](O)[C@H]6O)[C@H](O)[C@H]5O)CC[C@]4(C)[C@H]3C[C@H](O[C@@H]3O[C@H](CO)[C@@H](O[C@H]4O[C@H](CO)[C@@H](O)[C@H](O)[C@H]4O)[C@H](O)[C@H]3O)[C@]12C` [TFA-1]: the “Rh (nm), hydrodynamic radius of micelles measured by dynamic light scattering” value in series [1] came out at 1.9 ± 0.08 nm. For the same molecule, in series [2] (higher amphiphile concentration, CMC+0.2 wt %), the “maintaining LeuT WT function over 12 days” value is “matched DDM at the lower concentration”. Also, in series [3], the “CMC” value was found to be 13 ± 1.4 µM and the “CMC (wt %)” value is 0.0028 ± 0.0003 wt %.

The record behind these values is US10316057B2, “Tandem facial amphiphiles” (WISCONSIN ALUMNI RESEARCH FOUNDATION, priority 2011, dated 2019).
